Experimental data taken from patent US12409167B2, “Pharmaceutical combination comprising a selective S1P1 receptor agonist” (Vanda Pharmaceuticals Inc., priority 2014, dated 2025).
Structures can show the parent of a compound that is named as a salt.

Legend:
[1] = tested on: experimental autoimmune encephalomyelitis (EAE); experiment: combination efficacy experiment in rat EAE model; format: in vivo, Female Lewis rats; conditions: FIG. 1, DMF 120 mg/kg q.d., ponesimod 100 mg/kg q.d., from day 0; for effect on clinical course of EAE (clinical score): n=11/group
Description: FIG. 1: Efficacy of ponesimod, DMF or its combination in rat EAE (n=11/group). Clinical scoring was performed daily by an independent examiner in a blinded manner. SEM=standard error of the mean. Female Lewis rats are immunized with an emulsion of myelin basic protein (MBP) from Guinea pig in complete Freund's adjuvant. A total of 200 micrograms of MBP is injected per rat at two sites subcutaneously (right paw and base of tail). Within 10 days the rats develop signs of paralysis which will be graded on a scale from 0 to 15 assessing the tail and each limb individually according to the method originally described by Weaver A. et al., FASEB J., 2005, 19(12): 1668-1670. The disease takes an acute monophasic course and is self-remitting. Usually by day 21 clinical scores reach values below 3.0. Groups of 10 to 14 rats are dosed starting at the day of disease induction (day 0) with different doses of DMF in the range between 40 and 160 mg/kg once daily (q.d.). Clinical scores are assessed on a daily basis and disease development is compared between vehicle-treated rats and rats receiving DMF (vehicle: 0.5% Methylcellulose/0.5% Tween® 80). In parallel, body weights of the rats are monitored on a daily basis to follow general health. The experiment is terminated at day 21 whereupon hematology can be measured. The combination efficacy experiment is performed in the same rat EAE model as described for the first pilot experiment. It consists of four treatment groups: • 1. Vehicle (0.5% Methylcellulose/0.5% Tween® 80) q.d., from day 0 • 2. DMF (120 mg/kg) q.d., from day 0 • 3. Ponesimod (100 mg/kg) q.d., from day 0 • 4. DMF (120 mg/kg) q.d., from day 0+ponesimod (100 mg/kg) q.d., from day 0 In life and termination endpoints are the same as described for the first pilot experiment.

[2] = tested on: peripheral blood lymphocytes; conditions: oral administration; cited from earlier work
[3] = tested on: lymphocyte count in peripheral blood; experiment: ponesimod pilot experiment, lymphocyte count in peripheral blood; format: in vivo; conditions: second pilot experiment, healthy female Lewis rats, dose 100 mg/kg
Description: In parallel to the measurement of efficacy of DMF in the EAE model, a second pilot experiment is required. Healthy female Lewis rats will receive ponesimod at different doses in the range from 0.3 to 100 mg/kg. The goal is to assess the dose-effect relationship of ponesimod on lymphocyte count in peripheral blood in this strain of rat.

[4] = tested on: moderate to severe chronic plaque psoriasis; relapsing-remitting multiple sclerosis; conditions: patients with moderate to severe chronic plaque psoriasis and with relapsing-remitting multiple sclerosis; cited from earlier work
[5] = tested on: experimental autoimmune encephalomyelitis (EAE); experiment: rat monophasic EAE model, DMF pilot experiment; format: in vivo, Female Lewis rats; conditions: first pilot experiment, dose 120 mg/kg q.d. from day 0
Description: The efficacy of dimethyl fumarate (DMF) in acute monophasic models of experimental autoimmune encephalomyelitis (EAE) can be determined in a pilot experiment.
Female Lewis rats are immunized with an emulsion of myelin basic protein (MBP) from Guinea pig in complete Freund's adjuvant. A total of 200 micrograms of MBP is injected per rat at two sites subcutaneously (right paw and base of tail). Within 10 days the rats develop signs of paralysis which will be graded on a scale from 0 to 15 assessing the tail and each limb individually according to the method originally described by Weaver A. et al., FASEB J., 2005, 19(12): 1668-1670. The disease takes an acute monophasic course and is self-remitting. Usually by day 21 clinical scores reach values below 3.0.
Groups of 10 to 14 rats are dosed starting at the day of disease induction (day 0) with different doses of DMF in the range between 40 and 160 mg/kg once daily (q.d.). Clinical scores are assessed on a daily basis and disease development is compared between vehicle-treated rats and rats receiving DMF (vehicle: 0.5% Methylcellulose/0.5% Tween® 80). In parallel, body weights of the rats are monitored on a daily basis to follow general health. The experiment is terminated at day 21 whereupon hematology can be measured.
Plasma samples can be taken for compound concentration determination and for the measurement of protein markers. […]

| SMILES | effect on clinical course of EAE (clinical score) [1] | number of peripheral blood lymphocytes [2] | efficacy on lymphocyte count reduction [3] | clinical benefit in phase II trials [4] | effect on clinical score from day 16 onwards ([1]; from day 16 onwards) | efficacy on EAE scores [5] |
| --- | --- | --- | --- | --- | --- | --- |
| CCC/N=C1\S/C(=C\c2ccc(OC[C@H](O)CO)c(Cl)c2)C(=O)N1c1ccccc1C [ponesimod, (R)-5-[3-chloro-4-(2,3-dihydroxy-propoxy)-benz[Z]ylidene]-2-([Z]-propylimino)-3-o-tolyl-thiazolidin-4-one] | marked and statistically significant effect | consistent, sustained, and dose-dependent reduction | full efficacy on lymphocyte count reduction | has shown clinical benefit |  |  |
| COC(=O)/C=C/C(=O)OC [DMF, dimethyl fumarate] | moderate effect during the ascending phase of the disease |  |  |  | no effect on clinical score anymore | partial efficacy between none and strongest efficacy |
